pEC50: −log10 of the molar value.
Columns and labels:
[1] = target: Multidrug resistance-associated protein 1 (Homo sapiens, UniProt P33527); test: Modulation of MRP1 (unknown origin) expressed in MDCK cells at 100 uM; format: cell-based
[2] = target: T1, ATP-dependent translocase ABCB1 (Homo sapiens, UniProt P08183); test: Activation of ATPase activity of MDR1 (unknown origin) expressed in MDCK cells assessed as reduction of reduction of ATP level at 100 uM after 2 hrs by luminescence/ATPlite assay; format: cell-based; design: scale not given: the % may be the effect or the level left
T1 sequence (P08183 whole entry): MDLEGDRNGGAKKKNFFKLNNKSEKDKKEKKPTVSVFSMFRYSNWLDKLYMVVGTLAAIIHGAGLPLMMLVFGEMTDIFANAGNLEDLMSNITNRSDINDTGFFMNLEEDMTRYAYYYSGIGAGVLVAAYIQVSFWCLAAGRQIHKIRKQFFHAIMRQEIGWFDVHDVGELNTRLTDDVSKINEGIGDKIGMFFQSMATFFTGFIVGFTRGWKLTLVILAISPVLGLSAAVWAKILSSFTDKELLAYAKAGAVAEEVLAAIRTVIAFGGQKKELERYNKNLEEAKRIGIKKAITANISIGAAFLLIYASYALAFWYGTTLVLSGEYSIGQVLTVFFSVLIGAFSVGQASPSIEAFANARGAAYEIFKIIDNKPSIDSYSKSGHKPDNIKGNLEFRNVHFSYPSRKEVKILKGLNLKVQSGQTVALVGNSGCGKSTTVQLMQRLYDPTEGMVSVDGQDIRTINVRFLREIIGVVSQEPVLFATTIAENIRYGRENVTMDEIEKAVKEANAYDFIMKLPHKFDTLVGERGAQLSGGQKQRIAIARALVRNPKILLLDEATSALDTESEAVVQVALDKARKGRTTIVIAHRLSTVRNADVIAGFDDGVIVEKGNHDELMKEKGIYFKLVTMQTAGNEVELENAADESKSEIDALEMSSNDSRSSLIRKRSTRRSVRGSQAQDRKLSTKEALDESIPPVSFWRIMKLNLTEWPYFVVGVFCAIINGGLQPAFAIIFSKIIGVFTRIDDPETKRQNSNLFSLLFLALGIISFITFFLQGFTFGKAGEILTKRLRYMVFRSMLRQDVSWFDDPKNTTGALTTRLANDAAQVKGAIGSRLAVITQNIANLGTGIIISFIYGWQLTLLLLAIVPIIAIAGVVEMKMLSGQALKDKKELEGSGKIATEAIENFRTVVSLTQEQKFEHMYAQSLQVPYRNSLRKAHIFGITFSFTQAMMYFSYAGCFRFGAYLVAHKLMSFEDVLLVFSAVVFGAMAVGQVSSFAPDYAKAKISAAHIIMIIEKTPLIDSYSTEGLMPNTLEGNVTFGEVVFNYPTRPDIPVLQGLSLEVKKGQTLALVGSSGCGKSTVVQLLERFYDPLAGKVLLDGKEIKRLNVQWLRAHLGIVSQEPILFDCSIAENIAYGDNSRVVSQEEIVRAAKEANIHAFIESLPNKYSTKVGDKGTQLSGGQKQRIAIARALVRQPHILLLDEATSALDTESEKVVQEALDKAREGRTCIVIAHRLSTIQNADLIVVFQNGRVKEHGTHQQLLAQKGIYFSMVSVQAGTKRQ

[3] = target: T1, ATP-dependent translocase ABCB1; test: Inhibition of P-glycoprotein (unknown origin) expressed in MDCK cells assessed as reduction of calcein-AM transport after 30 mins by fluorescence assay; format: cell-based
[4] = Efflux ratio of permeability from basolateral to apical side over apical to basolateral side in human Caco2 cells at 100 uM after 30 mins by UV spectroscopy; format: ADME, cell-based; settings: Caco-2
[5] = Cytotoxicity against MDR1 expressing MDCK cells assessed as cell viability at 1 uM after 48 hrs by MTT assay in presence of MC18 P-gp inhibitor; format: ADME, cell-based, Canis lupus familiaris; settings: dog, with MC18 (P-gp inhibitor), concentration not stated, read-out: Activity
MDCK = test: Cytotoxicity against MDR1 expressing MDCK cells assessed as cell viability at 1 uM after 24 hrs by MTT assay; format: ADME, cell-based, Canis lupus familiaris; settings: dog
[6] = Cytotoxicity against MDR1 expressing MDCK cells assessed as cell viability at 1 uM after 48 hrs by MTT assay; format: ADME, cell-based, Canis lupus familiaris; settings: dog, read-out: Activity

Multidrug resistance-associated protein 1, sequence (P33527 whole entry): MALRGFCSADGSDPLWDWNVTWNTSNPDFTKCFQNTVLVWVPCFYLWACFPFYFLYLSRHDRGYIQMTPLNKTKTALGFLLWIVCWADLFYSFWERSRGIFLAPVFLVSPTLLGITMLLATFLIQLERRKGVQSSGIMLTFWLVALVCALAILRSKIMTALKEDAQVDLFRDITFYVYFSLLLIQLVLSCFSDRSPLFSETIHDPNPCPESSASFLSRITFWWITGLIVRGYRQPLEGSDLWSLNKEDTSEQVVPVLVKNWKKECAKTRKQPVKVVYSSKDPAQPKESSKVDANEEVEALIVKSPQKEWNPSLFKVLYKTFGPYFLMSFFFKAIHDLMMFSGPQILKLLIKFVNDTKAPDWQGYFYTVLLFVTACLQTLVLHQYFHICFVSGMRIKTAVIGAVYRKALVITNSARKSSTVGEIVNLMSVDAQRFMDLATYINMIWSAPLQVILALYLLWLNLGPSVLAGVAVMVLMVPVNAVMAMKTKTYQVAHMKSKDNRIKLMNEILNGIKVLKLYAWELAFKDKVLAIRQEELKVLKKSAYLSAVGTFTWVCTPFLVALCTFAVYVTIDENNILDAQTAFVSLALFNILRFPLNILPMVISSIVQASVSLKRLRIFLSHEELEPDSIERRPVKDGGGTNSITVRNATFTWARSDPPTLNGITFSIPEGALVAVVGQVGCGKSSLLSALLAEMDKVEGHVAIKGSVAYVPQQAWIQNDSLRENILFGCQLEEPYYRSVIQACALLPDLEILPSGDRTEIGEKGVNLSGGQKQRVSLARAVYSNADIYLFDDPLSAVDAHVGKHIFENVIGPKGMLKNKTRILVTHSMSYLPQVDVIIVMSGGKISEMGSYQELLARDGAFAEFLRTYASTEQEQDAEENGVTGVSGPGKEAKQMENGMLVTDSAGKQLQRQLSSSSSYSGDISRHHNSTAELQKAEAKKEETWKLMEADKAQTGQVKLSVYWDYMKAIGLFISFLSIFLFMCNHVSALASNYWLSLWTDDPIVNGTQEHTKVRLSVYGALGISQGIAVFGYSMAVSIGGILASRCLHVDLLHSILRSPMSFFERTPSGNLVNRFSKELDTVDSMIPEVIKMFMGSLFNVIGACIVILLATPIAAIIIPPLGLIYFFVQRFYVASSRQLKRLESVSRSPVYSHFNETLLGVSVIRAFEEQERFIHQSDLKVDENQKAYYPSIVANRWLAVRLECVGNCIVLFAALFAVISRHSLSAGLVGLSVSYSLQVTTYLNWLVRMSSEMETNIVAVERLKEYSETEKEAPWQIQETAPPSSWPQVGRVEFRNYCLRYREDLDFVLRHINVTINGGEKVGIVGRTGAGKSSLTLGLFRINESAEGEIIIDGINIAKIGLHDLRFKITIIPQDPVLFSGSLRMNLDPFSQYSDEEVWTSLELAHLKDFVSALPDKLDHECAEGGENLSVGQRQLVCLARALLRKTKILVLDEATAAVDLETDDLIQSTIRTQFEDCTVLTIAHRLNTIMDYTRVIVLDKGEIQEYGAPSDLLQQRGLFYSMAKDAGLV

| Structure (SMILES) | Activity [1] | Activity [2] | pEC50 [3] | efflux ratio at 0.5 h, 100 µM [4] | viability at 48 h, 1 µM [5] [%] | Activity (MDCK) | viability at 48 h, 1 µM [6] [%] |
| --- | --- | --- | --- | --- | --- | --- | --- |
| COc1cccc(CCc2ccccc2OCc2cc(OC)c(OC)c(OC)c2)c1OC | Not Active | Active | 6.52 | 3.23 |  |  |  |
| COc1cccc(COc2ccccc2CCc2cc(OC)c(OC)c(OC)c2)c1OC | Not Active | Active | 5.49 | 3.45 |  |  |  |
| COc1ccc(COc2ccccc2CCc2cc(OC)c(OC)c(OC)c2)cc1OC | Not Active | Active | 6.05 | 3.8 |  |  |  |
| COc1cc(CCc2ccccc2OCc2cc(OC)c(OC)c(OC)c2)cc(OC)c1OC | Not Active | Active | 8.15 | 3.96 | 63 | Non-toxic | 40 |
| COc1cc(COc2ccccc2CCc2cc(OC)c(OC)c(OC)c2)cc(OC)c1 | Not Active | Not Active | 5.89 |  |  |  |  |
| Clc1ccc(COc2ccccc2CCc2ccccc2)c(Cl)c1 | Not Active |  | < 4.00 |  |  |  |  |
| COc1cccc(CCc2ccccc2OCc2ccc3c(c2)OCO3)c1 | Not Active | Active | < 4.00 |  |  |  |  |
| COc1cccc(CCc2ccccc2OCc2cccs2)c1 | Not Active | Active | < 4.00 |  |  |  |  |
| COc1cc2c(cc1OC)CN(CCc1ccc(NC(=O)c3cc(OC)c(OC)cc3NC(=O)c3cnc4ccccc4c3)cc1)CC2 [TARIQUIDAR] |  | 30% |  | 22 |  |  |  |

Second part, led by results:

| Activity [1] | Activity [2] | pEC50 [3] | efflux ratio at 0.5 h, 100 µM [4] | Structure (SMILES) | viability at 48 h, 1 µM [5] [%] | Activity (MDCK) | viability at 48 h, 1 µM [6] [%] |
| --- | --- | --- | --- | --- | --- | --- | --- |
| Not Active | Not Active | 5.51 | 3.14 | COc1cccc(CCc2ccccc2OCc2cc(OC)c(OC)c(OC)c2)c1 |  |  |  |
| Not Active | Not Active | 5.68 | 2.77 | COc1ccc(CCc2ccccc2OCc2ccc(OC)c(OC)c2)cc1OC |  |  |  |
| Not Active | Active | 4.49 | 2.91 | COc1cccc(CCc2ccccc2OCc2ncccn2)c1 |  |  |  |
| Not Active | Active | 4.94 | 3 | COc1cccc(CCc2ccccc2NCc2ccncc2)c1 |  |  |  |
| Not Active | Active | 4.96 | 4.1 | COc1cccc(CCc2ccccc2NC(=O)c2cccc(OC)c2)c1 |  |  |  |
| Not Active | Active | 4.36 |  | COc1cccc(CCc2ccccc2NC(=O)c2cccnc2)c1 |  |  |  |

Reference: ChEMBL document CHEMBL3232943, “SAR study on arylmethyloxyphenyl scaffold: looking for a P-gp nanomolar affinity” (Eur J Med Chem, 2014)
